Measured values reported in US20070027088A1 (priority 2003, published 2007).
Entries after “also recorded” stand apart in the source; their conditions may differ. Where a SMILES comes first, the peptide text is derived from it. [ ]: non-standard residue; d: D form.

system: IL-2 RNA; settings: cited from earlier work

| Compound | inhibition of expression of IL-2 RNA |
| --- | --- |
| YNKKKATVQELD | 18-40 fold |

system: superantigen shock in Balb/c mice (SEB); settings: mouse, in vivo

| Compound | protection against superantigen shock |
| --- | --- |
| CSCC[C@@H](NC(=O)[C@H](N)CS)C(=O)N[C@H](Cc1ccc(O)cc1)C(=O)O [CMY*] (H-[dC]-[dM]-[dY]-OH) | provided some protection against superantigen-induced shock |
| CSCC[C@@H](NC(=O)[C@H](N)Cc1ccc(O)cc1)C(=O)N[C@H](CS)C(=O)O [YMC*] (H-[dY]-[dM]-[dC]-OH) | quite effective in protecting mice against shock |

same assay, conditions: mouse, in vivo, ip

| Compound | % SURVIVAL [%] | SURVIVORS/INJECTED |
| --- | --- | --- |
| CSCC[C@@H](NC(=O)[C@H](N)CS)C(=O)N[C@H](Cc1ccc(O)cc1)C(=O)O [CMY*] (H-[dC]-[dM]-[dY]-OH) | 33 | 2/6 |
| CSCC[C@@H](NC(=O)[C@H](N)Cc1ccc(O)cc1)C(=O)N[C@H](CS)C(=O)O [YMC*] (H-[dY]-[dM]-[dC]-OH) | 83 | 5/6 |

system: human PBMCs stimulated with SEB; format: cell-based; settings: not given

| Compound | inhibition of blastogenesis | loss of inhibiting activity compared with original 12-mer peptide | inhibition of proliferative effects of the toxin | inhibition of SEB proliferation (words) | inhibitory activity of alanine substitution constructs | inhibition of SEB proliferation |
| --- | --- | --- | --- | --- | --- | --- |
| YYY [reference compound] | not inhibitory |  |  |  |  |  |
| MYGGVTEHEGN |  | approximately 30% |  |  |  |  |
| TEHEGN |  | 48% |  |  |  |  |
| CYM | effective in inhibiting blastogenesis of the toxins |  |  |  |  |  |
| CMYGGVTEHEG |  | 18% |  |  |  |  |
| CAY | effective in inhibiting blastogenesis of the toxins |  |  |  |  |  |
| CMYGGVTEHE |  | 54% |  |  |  |  |
| CMYG |  |  | comparatively little effect in the inhibition of toxin regardless of concentration |  |  |  |
| acetylated CMY |  |  |  | did not significantly change the inhibitory effects of CMY |  |  |
| CMAGGVTEHEGN [SEQ ID NO: 10] |  |  |  |  | significant loss of the inhibitory properties; also recorded: complete loss of the inhibitory properties |  |
| CMYKK |  |  |  | comparable and at high concentrations better than the original 12-mer peptide; also recorded: more effectively than the 12-mer peptide 6343 |  |  |
| AAA [reference compound] | not effective |  |  |  |  |  |
| cmy-OH | effective in inhibiting blastogenesis of the toxins |  |  |  |  |  |
| AMY | effective in inhibiting blastogenesis of the toxins |  |  |  |  |  |
| CMYGGVAEHEGN [A at 7] |  |  |  |  | better inhibition of biological activity than the original 12-mer peptide |  |
| MYC | effective in inhibiting blastogenesis of the toxins |  |  |  |  |  |
| CMYGK |  |  |  | comparable to that of the original 12 amino acid peptide; also recorded: more effectively than the 12-mer peptide 6343 |  |  |
| CAYGGVTEHEGN [SEQ ID NO: 9] |  |  |  |  | significant loss of the inhibitory properties |  |
| TTT [reference compound] | not effective |  |  |  |  |  |
| CSCC[C@@H](NC(=O)[C@H](N)CS)C(=O)N[C@H](Cc1ccc(O)cc1)C(=O)O [CMY*] (H-[dC]-[dM]-[dY]-OH) |  |  |  | significantly greater inhibitory effects than the control 12-mer peptide or their respective L-conformation peptides; also recorded: most effective in blocking superantigen activity |  |  |
| CMYGGV |  | 52% |  |  |  |  |
| CMYGGVTAHEGN [A at 8] |  |  |  |  | better inhibition of biological activity than the original 12-mer peptide |  |
| CSCC[C@@H](NC(=O)[C@H](N)Cc1ccc(O)cc1)C(=O)N[C@H](CS)C(=O)O [YMC*] (H-[dY]-[dM]-[dC]-OH) |  |  |  | significantly greater inhibitory effects than the control 12-mer peptide or their respective L-conformation peptides; also recorded: most effective in blocking superantigen activity |  |  |
| cmy-NH2 | effective in inhibiting blastogenesis of the toxins |  |  |  |  |  |
| EHEGNCMYGGVT [6343S, reference compound] |  |  |  | minimal effect on bacterial toxin proliferation |  | less than 20% |
| AMYGGVTEHEGN [SEQ ID NO: 8] |  |  |  |  | significant loss of the inhibitory properties |  |
| YGGVTEHEGN |  | approximately 50% |  |  |  |  |

system: bacterial toxins; settings: mouse, in vivo; cited from earlier work

| Compound | rescue from lethal effects of bacterial toxins |
| --- | --- |
| YNKKKATVQELD | rescues mice from the lethal effects of bacterial toxins |
